Source: ChEMBL document CHEMBL1123141, “N-[2-hydroxy-5-[2-(methylamino)ethyl]phenyl]methanesulfonamide. A potent agonist which releases intracellular calcium by activation of alpha 1-adrenoceptors” (J Med Chem, 1985)

Tests used:
[1] = molecular target: T1, Alpha-1A adrenergic receptor (Homo sapiens) (UniProt P35348); assay: Effect of 1 uM external [Ca2+] on the contractions induced by compound in the canine saphenous vein at EC50 concentration and expressed as percent of control response in […] Ca+; absolute concentration 5.0 +/- 1.5 X 10e-7 M; format: functional, tissue-based; details: Canis lupus familiaris
T1 sequence (whole entry): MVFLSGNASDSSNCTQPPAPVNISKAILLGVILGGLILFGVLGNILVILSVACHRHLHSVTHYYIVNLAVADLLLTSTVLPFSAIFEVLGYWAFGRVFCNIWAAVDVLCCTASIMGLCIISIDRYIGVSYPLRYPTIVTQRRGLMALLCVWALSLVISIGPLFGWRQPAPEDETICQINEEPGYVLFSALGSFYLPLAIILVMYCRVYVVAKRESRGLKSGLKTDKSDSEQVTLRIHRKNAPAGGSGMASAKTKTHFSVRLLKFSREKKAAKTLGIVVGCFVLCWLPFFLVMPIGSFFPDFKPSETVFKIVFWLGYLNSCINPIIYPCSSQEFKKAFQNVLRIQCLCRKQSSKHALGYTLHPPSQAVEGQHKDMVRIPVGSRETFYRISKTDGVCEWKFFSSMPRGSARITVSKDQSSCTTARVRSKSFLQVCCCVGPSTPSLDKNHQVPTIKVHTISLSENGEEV

[2] = molecular target: T1, Alpha-1A adrenergic receptor (Homo sapiens); assay: Effect of zero uM external [Ca2+] on the contractions induced by compound in the canine saphenous vein at EC100 concentration experimented in the presence of 2 mM EGTA and expressed as percent of control response in […] Ca+ physiological saline; absolute concentration 5.0 X 10e-5 M; format: functional, tissue-based; details: Canis lupus familiaris
[3] = molecular target: T1, Alpha-1A adrenergic receptor (Homo sapiens); assay: Effect of 1 uM external [Ca2+] on the contractions induced by compound in the canine saphenous vein at EC100 concentration and expressed as percent of control response in […] Ca+; absolute concentration 5.0 X 10e-5 M; format: functional, tissue-based; details: Canis lupus familiaris
[4] = Dissociation constant against constrictor response to the compound blocked competitively by phentolamine for alpha-mediated events; format: functional
[5] = molecular target: T1, Alpha-1A adrenergic receptor (Homo sapiens); assay: Effect of zero external [Ca2+] on the contractions induced by compound in the canine saphenous vein in the presence of 2 mM EGTA and expressed as percent of control response in […] Ca+ physiological saline; absolute concentration 1.5 +/-0.7 X 10e-; format: functional, tissue-based; details: Canis lupus familiaris
[6] = molecular target: T1, Alpha-1A adrenergic receptor (Homo sapiens); assay: Effect of zero external [Ca2+] on the contractions induced by acompound in the canine saphenous vein at EC50 concentration experimented in the presence of 2 mM EGTA and expressed as percent of control response in […] Ca+ physiological saline; abso; format: functional, tissue-based; details: Canis lupus familiaris
[7] = molecular target: T1, Alpha-1A adrenergic receptor (Homo sapiens); assay: Effect of 1 uM external [Ca2+] on the contractions induced by compound in the canine saphenous vein at EC25 concentration and expressed as percent of control response in […] Ca+; absolute concentration 1.5 +/-0.7 X 10e-7 M; format: functional, tissue-based; details: Canis lupus familiaris

With CNCCc1ccc(O)c(NS(C)(=O)=O)c1 the Control response [1] was 37.6%, the Control response [2] was 37.9% and the Control response [3] was 78.3%. It also gave a Ki [4] of less than 20 nM, a Control response [5] of 6% and a Control response [6] of 20.2%. It also gave a Control response [7] of 8.1%.
